Measurements: ChEMBL document CHEMBL1201862, “PubChem BioAssay data set” (2004)
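A five-concentration, 48-hour dose response in 96-well plates underlies each endpoint, interpolated linearly between surrounding concentrations. Here, GI50 denotes the concentration required for 50% inhibition of growth.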 Calls of active or inactive are those of the source. Cut-off read from the data, not from the text of the source: active = GI50 up to about 1.1 µM and inactive = higher.

What was measured:
Test in all cases: NCI-60 cell line screen, 48 h
786-0 = tested on: 786-0
A498 = tested on: A498
A549 = tested on: A549
ACHN = tested on: ACHN
CAKI-1 = tested on: CAKI-1
CCRF-CEM = tested on: CCRF-CEM
COLO 205 = tested on: COLO 205
DMS-114 = tested on: DMS-114
DMS-273 = tested on: DMS-273
EKVX = tested on: EKVX
HCC 2998 = tested on: HCC 2998
HCT-116 = tested on: HCT-116
HCT-15 = tested on: HCT-15
HL-60 = tested on: HL-60
HOP-62 = tested on: HOP-62
HOP-92 = tested on: HOP-92
HT-29 = tested on: HT-29
IGROV-1 = tested on: IGROV-1
K562 = tested on: K562
KM-20L2 = tested on: KM-20L2
KM12 = tested on: KM12
LOX IMVI = tested on: LOX IMVI
LXFL 529 = tested on: LXFL 529
M14 = tested on: M14
M19-MEL = tested on: M19-MEL
MOLT-4 = tested on: MOLT-4
Malme-3M = tested on: Malme-3M
NCI-H23 = tested on: NCI-H23
NCI-H460 = tested on: NCI-H460
NCI-H522 = tested on: NCI-H522
OVCAR-3 = tested on: OVCAR-3
OVCAR-4 = tested on: OVCAR-4
OVCAR-5 = tested on: OVCAR-5
OVCAR-8 = tested on: OVCAR-8
RPMI-8226 = tested on: RPMI-8226
RXF 393 = tested on: RXF 393
RXF 631 = tested on: RXF 631
SF-268 = tested on: SF-268
SF-295 = tested on: SF-295
SF-539 = tested on: SF-539
SK-MEL-28 = tested on: SK-MEL-28
SK-MEL-2 = tested on: SK-MEL-2
SK-MEL-5 = tested on: SK-MEL-5
SK-OV-3 = tested on: SK-OV-3
SN12C = tested on: SN12C
SNB-19 = tested on: SNB-19
SNB-75 = tested on: SNB-75
SNB-78 = tested on: SNB-78
SR = tested on: SR
SW-620 = tested on: SW-620
TK-10 = tested on: TK-10
U-251 = tested on: U-251
UACC-257 = tested on: UACC-257
UACC-62 = tested on: UACC-62
UO-31 = tested on: UO-31
XF498 = tested on: XF498
DLD-1 = tested on: DLD-1
NCI-H226 = tested on: NCI-H226
HOP-18 = tested on: HOP-18

Measured: GI50

CCOC(=O)c1ccc(N[C@@H]2c3cc4c(cc3C(C3=CC(=O)C(=O)C(OC)=C3)[C@H]3C(=O)OCC32)OCO4)cc1 (some centres not stated)
active: A549 0.548 µM | ACHN 0.9 µM | CAKI-1 0.634 µM | CCRF-CEM 0.845 µM | HL-60 0.802 µM | HOP-62 0.512 µM | MOLT-4 0.215 µM | NCI-H460 0.173 µM | RPMI-8226 1.06 µM | SR 0.148 µM | U-251 0.995 µM
2.21 µM: HCT-15
inactive: 786-0 1.6 µM | A498 1.77 µM | COLO 205 3.21 µM | DMS-114 1.79 µM | DMS-273 1.12 µM | EKVX 3.73 µM | HCC 2998 4.6 µM | HCT-116 2.86 µM | HOP-92 2.04 µM | HT-29 4.49 µM | IGROV-1 5.78 µM | K562 2.67 µM | KM-20L2 6.37 µM | KM12 3.92 µM | LOX IMVI 2.08 µM | LXFL 529 6.5 µM | M14 2.51 µM | M19-MEL 6.1 µM | Malme-3M 2.53 µM | NCI-H23 1.54 µM | NCI-H522 4.61 µM | OVCAR-3 8.47 µM | OVCAR-4 24.2 µM | OVCAR-5 4.88 µM | OVCAR-8 2.86 µM | RXF 393 2.84 µM | RXF 631 1.91 µM | SF-268 1.77 µM | SF-295 1.35 µM | SF-539 1.29 µM | SK-MEL-28 7.6 µM | SK-MEL-2 2.82 µM | SK-MEL-5 2.72 µM | SK-OV-3 2.26 µM | SN12C 2 µM | SNB-19 2.49 µM | SNB-75 1.58 µM | SNB-78 8.69 µM | SW-620 2.34 µM | TK-10 9.84 µM | UACC-257 9.08 µM | UACC-62 1.69 µM | UO-31 2.52 µM | XF498 1.48 µM

COc1cc(Oc2c(O)c(C)c(OC)c(C(C)=O)c2O)c(C(C)=O)c(O)c1C
47.6 µM: HCT-15
inactive: 786-0 60.7 µM | A549 45.8 µM | ACHN 46.5 µM | CAKI-1 60.3 µM | CCRF-CEM > 100 µM | COLO 205 60.1 µM | DLD-1 66.7 µM | DMS-114 47.5 µM | DMS-273 37.8 µM | HCC 2998 59 µM | HCT-116 52.8 µM | HOP-62 34.3 µM | HOP-92 44.6 µM | HT-29 71.8 µM | IGROV-1 67.3 µM | KM-20L2 63.8 µM | KM12 65.3 µM | LOX IMVI 57.3 µM | LXFL 529 49.5 µM | M14 64.3 µM | M19-MEL 55.5 µM | Malme-3M 42.8 µM | NCI-H226 85.9 µM | NCI-H23 34.4 µM | NCI-H460 46.9 µM | NCI-H522 12.9 µM | OVCAR-3 43 µM | OVCAR-4 45.2 µM | OVCAR-5 98.2 µM | OVCAR-8 51.6 µM | RXF 393 61.9 µM | RXF 631 > 100 µM | SF-268 66.4 µM | SF-295 > 100 µM | SF-539 62.2 µM | SK-MEL-28 50.6 µM | SK-MEL-5 35.2 µM | SK-OV-3 > 100 µM | SN12C 34.9 µM | SNB-19 63 µM | SNB-75 > 100 µM | SNB-78 > 100 µM | SR > 100 µM | SW-620 57.3 µM | TK-10 49.4 µM | U-251 44.2 µM | UACC-257 40.6 µM | UACC-62 40.5 µM | UO-31 43.1 µM | XF498 59.6 µM

C=CCC1(CN(C)C)CC/C(=C\c2ccc(OC)cc2)C1=O (configuration not stated)
inactive: 786-0 65.8 µM | A498 73.5 µM | A549 > 100 µM | ACHN > 100 µM | CCRF-CEM 34.8 µM | COLO 205 46.7 µM | DLD-1 34.2 µM | DMS-114 37.7 µM | DMS-273 > 100 µM | EKVX 20.3 µM | HCC 2998 38.7 µM | HCT-116 61.5 µM | HL-60 15 µM | HOP-18 > 100 µM | HOP-62 > 100 µM | HOP-92 83.6 µM | HT-29 36.6 µM | IGROV-1 > 100 µM | K562 32.9 µM | KM-20L2 46.2 µM | KM12 74.3 µM | LOX IMVI > 100 µM | LXFL 529 47.2 µM | M14 74.5 µM | M19-MEL 59.8 µM | MOLT-4 28.7 µM | Malme-3M 79.3 µM | NCI-H226 > 100 µM | NCI-H23 81.7 µM | NCI-H460 > 100 µM | NCI-H522 25.8 µM | OVCAR-3 > 100 µM | OVCAR-4 88.7 µM | OVCAR-5 > 100 µM | OVCAR-8 69.8 µM | RPMI-8226 23.9 µM | RXF 393 > 100 µM | RXF 631 25 µM | SF-268 > 100 µM | SF-295 > 100 µM | SF-539 > 100 µM | SK-MEL-28 > 100 µM | SK-MEL-2 > 100 µM | SK-MEL-5 41.5 µM | SN12C > 100 µM | SNB-19 > 100 µM | SNB-75 > 100 µM | SNB-78 > 100 µM | SW-620 30.9 µM | TK-10 > 100 µM | U-251 89.5 µM | UACC-257 38 µM | UACC-62 > 100 µM | UO-31 89.9 µM
52 µM: HCT-15
